# Assay results reported in patent US4125605A, “Method of employing oral TRH” (The United States Government, priority 1977, dated 1978).
# What was measured:
# [1] = tested on: nursing women between the 5th and 35 postpartum days; type: in vivo, human; conditions: 5 mg TRH oral single dose
# Experimental: To test the efficacy of TRH, six nursing women between the 5th and 35 postpartum days were studied. Each received one 5 mg capsule of TRH in the early morning after an overnight fast. Six nursing women matched for postpartum interval received a placebo of lactose sugar. Blood samples were drawn from an indwelling catheter in an antecubital vein at -5,0,30,60,120, and 180 min.
# A set of specific radioimmunoassays were employed for the measurement of plasma hormones. PRL was measured by a modification of the radioimmunoassay of Hwang et al., Proc. Nat. Acad. Sci., 68:1902 (1971) using the iodination technique of Greenwood et al., Biochem J., 89:114 (1963). Plasma LH and FSH were measured by using a modification of the double antibody radioimmunoassay of Midgely, Endocrinology, 79:10 (1966). Thyrotropin (TSH) was determined by a double antibody radioimmunoassay of Odell, Rayford and Ross, J. Lab. Clin. Med., 70:973 (1967). Plasma thyroxine (T4) by column was measured by the method of Pileggi and Kessler, Clin. Chem., 14:339 (1968). A modification of the immunoassay of Roth et al., Science, 140:987 (1963), was used to measure plasma growth hormone (GH) utilizing the iodination technique for prolactin. Antibody bound radioactivity was separated by the dextran-charcoal method of Herbert et al., J. Clin. Endocrinol. Metab., 25:1375 (1965). […]
# [2] = tested on: women practicing full nursing; type: in vivo, human
# Experimental: (§1) Sixty women volunteered for this major study and each was instructed to practice full nursing for at least 90 postpartum days. Fifty percent of the women were dropped from the study before the end of the first postpartum month due to changes in nursing patterns. The remaining 30 women were randomly divided into TRH and control groups. TRH, 5 mg or a lactose placebo, was administered daily at 0800 and 2000 h for 30 days beginning on day 29 postpartum. Blood and milk samples were obtained on the first postpartum day and at weekly intervals between 1500 and 1600 h. Thus, blood samples were never obtained sooner than 7 h after the ingestion of TRH. Each women's nursing pattern was recorded by nurse-midwives. Charts of infant growth and development were plotted weekly.
# (§2) With regard to sampling procedures, individual blood samples were collected in heparinized vacuum tubes. Neither nursing nor maternal food intake had occurred in the previous 3 h. The sampling procedure in Examples II and III consisted of placing the patient at rest for a minimum of 15 min after which blood was drawn from an antecubital vein. Blood samples were centrifuged and plasma was removed and stored at -20C. Samples originating outside the continental United States were delivered to the laboratory at quarterly intervals in dry ice by special messenger.
# (§3) In Examples II and III, milk was obtained from each breast following blood sampling and immediately prior to nursing. The women were instructed to grasp first the right and then the left breast, kneading it gently toward the nipple. Thus, 10 ml or more of the fore milk was removed with ease through each nipple and combined in a sterile container. The sample was thoroughly mixed by vigorous shaking. A compressed tablet of mercuric chloride and potassium dichromate was then added as a preservative to each sample before storing.
# (§4) A set of specific radioimmunoassays were employed for the measurement of plasma hormones. PRL was measured by a modification of the radioimmunoassay of Hwang et al., Proc. Nat. Acad. Sci., 68:1902 (1971) using the iodination technique of Greenwood et al., Biochem J., 89:114 (1963). Plasma LH and FSH were measured by using a modification of the double antibody radioimmunoassay of Midgely, Endocrinology, 79:10 (1966). Thyrotropin (TSH) was determined by a double antibody radioimmunoassay of Odell, Rayford and Ross, J. Lab. Clin. Med., 70:973 (1967). Plasma thyroxine (T4) by column was measured by the method of Pileggi and Kessler, Clin. Chem., 14:339 (1968). A modification of the immunoassay of Roth et al., Science, 140:987 (1963), was used to measure plasma growth hormone (GH) utilizing the iodination technique for prolactin. Antibody bound radioactivity was separated by the dextran-charcoal method of Herbert et al., J. Clin. Endocrinol. Metab., 25:1375 (1965). Each of the references mentioned in this paragraph is incorporated herein by reference.
# For the analysis of milk composition, samples were thawed and held at room temperature for no more than 30 min. Aliquots were analyzed for percent fat, protein and lactose concentrations using the infrared milk analyzer (IRMA). Samples less than 30 ml in volume (about 10% of the total) were diluted up to 35 ml with distilled water. These were then homogenized with a Biosonic Model 3 Ultrasonicater (Bronwill Scientific Co., Rochester, N.Y.) at an exposed intensity of 70 vibrations per second for 30 sec. These samples were stored overnight at 4° C. and then analyzed for composition. […]
# [3] = tested on: infants of TRH-treated mothers; parameters: species or system human; conditions: in vivo, po
# Experimental: as §1, with “Charts of infant growth and development were plotted weekly.” left out
# A set of specific radioimmunoassays were employed for the measurement of plasma hormones. PRL was measured by a modification of the radioimmunoassay of Hwang et al., Proc. Nat. […] Plasma LH and FSH were measured by using a modification of the double antibody radioimmunoassay of Midgely, Endocrinology, 79:10 (1966). Thyrotropin (TSH) was determined by a double antibody radioimmunoassay of Odell, Rayford and Ross, J. Lab. […] Plasma thyroxine (T4) by column was measured by the method of Pileggi and Kessler, Clin. Chem., 14:339 (1968). […] Antibody bound radioactivity was separated by the dextran-charcoal method of Herbert et al., J. Clin. Endocrinol. […]
# [4] = tested on: women with lactational insufficiency practicing partial nursing; experiment: Example III: oral TRH 5 mg or 20 mg twice a day for 5 days in women with lactational insufficiency; type: in vivo, human
# Experimental: A group of 13 women with lactational insufficiency practicing partial nursing between 13-71 postpartum days were next studied. Four received TRH 5 mg and nine received 20 mg twice a day at 0800 and 2000 h for 5 days. Blood samples were obtained prior to the first capsule and daily thereafter for 5 days before taking the morning dose of TRH. Daily milk samples were also collected.
# as §2, §3, §4
# For the analysis of milk composition, samples were thawed and held at room temperature for no more than 30 min. Aliquots were analyzed for percent fat, protein and lactose concentrations using the infrared milk analyzer (IRMA). Samples less than 30 ml in volume (about 10% of the total) were diluted up to 35 ml with distilled water. These were then homogenized with a Biosonic Model 3 Ultrasonicater (Bronwill Scientific Co., Rochester, N.Y.) at an exposed intensity of 70 vibrations per second for 30 sec. These samples were stored overnight at 4° C. and then analyzed for composition. Corrections were made for any dilution.
# [5] = tested on: women with insufficient lactation; parameters: species or system human; conditions: in vivo
# Experimental: as §4
# As an experimental exercise, two women with insufficient lactation gave consent for the administration of 40 mg of oral TRH twice a day or the same time schedule as noted above. On the 7th day of therapy the patients were reevaluated and found to have lost weight. Their pulse rate was elevated as was their blood pressure. […]
# surrogate mothers = experiment: Induction of lactation in surrogate (adoptive) mothers with conjugated estrogens plus oral TRH; type: in vivo, human
# Text: An additional use of TRH is in surrogate mothers. Studies in accordance with the present invention have involved the administration of TRH to adoptive mothers. In most instances, such women have undergone voluntary sterilization following the birth of natural children but, for one reason or another, wish to have another child. By the present invention, lactation has been induced in such women for the benefit of their adopted child by attempting to simulate the effects of pregnancy on prolactin secretion and, at the same time, by requesting that the […] practice auto-stimulation of the nipple. The technique of stimulation is as follows: Women are treated with 5 to 10 mg of conjugated estrogens equine twice a day for 14 days. Caution with regard to the possibility of side effects is given to each woman based upon the known effects of such estrogens on the vascular system. Beginning on the 7th day of estrogen treatment, oral TRH 5-10 mg twice a day, at intervals of about 12 hours, is administered for the final 7 days of treatment with estrogen. At the end of the 14th estrogen-treatment day, TRH is continued while the frequency of nipple stimulation is increased from four times daily to every 4 hours. In the women studied thus far, milk production can be induced within 72 hours following the withdrawal of the estrogen. […]
# [6] = tested on: puerperally lactating mothers; experiment: Reestablishment of lactation in puerperally lactating mothers after emergency surgery; type: in vivo, human; conditions: mothers separated from child by emergency surgery; with coincident sucking
# Text: The administration of TRH may also be initiated in puerperally lactating mothers who have to undergo emergency surgery such as polycystectomy, apendectomy, or the repair of fractures. Such surgery usually takes the mother away from the child for periods of time up to 14 days and a mother who is desirous of breastfeeding may find great difficulty in reestablishing lactation when she returns home from the hospital. In such cases, the administration of TRH has been associated with the reestablishment of lactation within 48 hours. It is to be emphasized that such lactation cannot be firmly established without coincident sucking of the nipple by the child.
# postpartum women = experiment: Low-dose TRH in postpartum women: prolactin versus thyrotropin response; type: in vivo, human
# [7] = 20 mg dosage capsules three times a day, oral; cited from earlier work
# [8] = 5 mg TRH every 12 h for 5 days, four women
# [9] = 20 mg twice daily, Day 1 (before initial ingestion)
smiles,measurement,setting,value
"NC(=O)[C@@H]1CCCN1C(=O)[C@H](Cc1cnc[nH]1)NC(=O)[C@@H]1CCC(=O)N1 [TRH, thyrotropin releasing hormone]",mean maximal PRL increment,"[1]; at 60 min, six nursing mothers",46.3 ng/mL
same,peripheral PRL throughout the sampling period,[1]; sampling to 180 min,remained elevated
same,weekly 1500 h maternal PRL concentration,"[2]; 5 mg TRH twice daily for 30 days, full nursing",not associated with any significant change
same,milk composition (percent of fat and protein concentration),"[2]; TRH versus control group, full nursing",did not differ significantly
same,bleeding patterns (postovulatory vaginal bleeding),"[2]; beyond the 14th postpartum week, TRH-treated versus placebo-treated mothers",no difference
same,T4 values,[2]; in vivo,normal
same,gonadotropin levels,"[2]; measured weekly, TRH versus controls",identical in controls
same,infant plasma growth hormone,[3],32.2 ± 4.9 ng/mL
same,infant plasma prolactin,[3],200.3 ± 19.2 ng/mL
same,increase in the PRL concentration,[4]; [8],50%
same,milk production and letdown,[4]; [8],increased
same,"% Milk fat, Mean ± SE",[4]; [9],2.99±0.4%
same,"% Milk protein, Mean ± SE",[4]; [9],1.81±0.2%
same,"Plasma PRL, Mean ± SE","[4]; 20 mg twice daily, Day 1 (before initial ingestion), nine women",27.8 ± 5.3 ng/mL
same,"% Milk fat, Mean ± SE","[4]; 20 mg twice daily, Day 2, NS",3.88±0.6%
same,"% Milk protein, Mean ± SE","[4]; 20 mg twice daily, Day 2, NS",1.63±0.2%
same,"Plasma PRL, Mean ± SE","[4]; 20 mg twice daily, Day 2, P .0005 vs day 1",53.1 ± 8.7 ng/mL
same,"% Milk fat, Mean ± SE","[4]; 20 mg twice daily, Day 3, NS",3.21± 0.4%
same,"% Milk protein, Mean ± SE","[4]; 20 mg twice daily, Day 3, NS",1.61± 0.1%
same,"Plasma PRL, Mean ± SE","[4]; 20 mg twice daily, Day 3, P .005 vs day 1",73.3 ± 12.4 ng/mL
same,"% Milk fat, Mean ± SE","[4]; 20 mg twice daily, Day 4, NS",3.79±0.4%
same,"% Milk protein, Mean ± SE","[4]; 20 mg twice daily, Day 4, NS",1.62±0.1%
same,"Plasma PRL, Mean ± SE","[4]; 20 mg twice daily, Day 4, NS vs day 1",44.1 ± 7.0 ng/mL
same,"% Milk fat, Mean ± SE","[4]; 20 mg twice daily, Day 5, NS",3.02±0.2%
same,"% Milk protein, Mean ± SE","[4]; 20 mg twice daily, Day 5, NS",1.60±0.1%
same,"Plasma PRL, Mean ± SE","[4]; 20 mg twice daily, Day 5, NS vs day 1",54.8 ± 13.9 ng/mL
same,"mean percent fat composition of milk, greater than pretreatment","[4]; 20 mg twice daily, day two of treatment, difference not significant",~1%
same,percent of lactose concentration in milk,[4]; milk samples obtained from all studies,remained constant
same,return to full nursing,[4]; partially nursing women after TRH ingestion,all were able to return to full nursing
same,breast engorgement and milk letdown,[4]; reported by each woman as a result of TRH ingestion,subjective and objective increases
same,reevaluation after discontinuation,[5],no clinical or laboratory evidence of hyperthyroidism
same,time to induction of milk production following the withdrawal of the estrogen,"surrogate mothers; conjugated estrogens equine 5 to 10 mg twice a day 14 days, oral TRH 5-10 mg twice a day from 7th day, nipple stimulation",≤ 72 h
same,basal plasma prolactin concentration,"surrogate mothers; conjugated estrogens equine then oral TRH 5-10 mg twice a day, surrogate mothers",increase
same,time to reestablishment of lactation,[6],≤ 48 h
same,"dose for maximum prolactin response, times lower than dose for threshold thyrotropin secretion",postpartum women,5 to 10 times
same,instances in which peripheral prolactin concentration is elevated,postpartum women; TRH in low doses,95%
same,effect on the yield or composition of milk,[7],no significant effect
